Laboratory results: paper PMC4608773, “Elisidepsin Interacts Directly with Glycosylceramides in the Plasma Membrane of Tumor Cells to Induce Necrotic Cell Death” (PLoS ONE, 2015)
Where two headings read alike, the source gives them in different places.

Tests used:
[1] = system: HCT-116 cells; test: cells
Experimental: (§1) Cells were seeded in 96-well microtiter plates and maintained at 37°C and 5% CO2 in drug-free medium before treatment with vehicle alone or elisidepsin at the concentrations and times indicated in the text. For cell survival quantification, a colorimetric assay using SRB was used. Briefly, after treatment, cells were washed twice with phosphate buffered saline (PBS), fixed for 25 min in 1% glutaraldehyde solution, rinsed twice with PBS, stained in 0.4% SRB-1% acetic acid solution for 30 min, rinsed several times with 1% acetic acid solution, and air-dried. […] Results are expressed as percentage of control cell survival and represent the mean of at least three independent experiments. IC50, half-maximal inhibitory concentration, was used as a reference value.

[2] = system: HCT-116-Irv cells (elisidepsin-resistant subline); test: cells; details: for IC50: read-out: HCT-116-Irv (IC50), cell growth half-maximal inhibitory concentration; for RR (resistance ratio): fold change between IC50 values from HCT-116-Irv and HCT-116: negative values where HCT-116-Irv is the more sensitive line
Experimental: B16 and GM95 cells were maintained in DMEM with the same supplements and conditions.
as §1

[3] = biological target: Elisidepsin; test: FRET or BRET; two-photon FLIM-FRET, phasor analysis, on live HCT-116 cells in Tyrode-glucose buffer; mix of donor Irv-OG488 200 nM, acceptor Irv-A555 800 nM and elisidepsin 3 μM added to the cells; assemblies seen in the plasma membrane
[4] = system: GM95 cells (UGCG-deficient B16 mutant); test: Cell viability assay (SRB colorimetric); assay type: cell-based, mouse; details: for IC50: read-out: GM95 (IC50), cell growth half-maximal inhibitory concentration; for RR: fold change between IC50 values from GM95 and B16: negative values where GM95 is the more sensitive line
Experimental: as §1

[5] = system: B16 cells; test: Cell viability assay (SRB colorimetric); assay type: cell-based, mouse
Experimental: as §1

[6] = Homo sapiens, HCT-116, read-out: HCT-116 (IC50), cell growth half-maximal inhibitory concentration
[7] = read-out: HCT-116 (IC50), cell growth half-maximal inhibitory concentration, SRB assay, 96-well, mean of three different experiments, exposure time not given
[8] = SRB assay, mean of three different experiments
[9] = SRB assay, mean of three different experiments, read-out: B16 (IC50), cell growth half-maximal inhibitory concentration
[10] = SRB assay, 96-well, mean of three different experiments, exposure time not given
[11] = Mus musculus, B16, read-out: B16 (IC50), cell growth half-maximal inhibitory concentration

Row | Compound | IC50 [1, 6] [nM] | IC50 ([2]; Homo sapiens) [nM] | RR (resistance ratio): fold change between IC50 values from HCT-116-Irv and HCT-116 [2] | RR: fold change between IC50 values from GM95 and B16 [4] | other results
1 | C#Cc1cccc(Nc2ncnc3cc(OCCOC)c(OCCOC)cc23)c1 [Erlotinib] | 32000 | 16000 |  |  | 
2 | Elisidepsin (peptide) |  |  |  |  | FRET efficiency [3]: 60%
3 | C[C@@H]1[C@H](O)[C@@H](C)/C=C/C=C/C=C/C=C/C=C/C=C/C=C/[C@H](O[C@@H]2O[C@H](C)[C@@H](O)[C@H](N)[C@@H]2O)C[C@@H]2O[C@](O)(C[C@@H](O)C[C@@H](O)[C@H](O)CC[C@@H](O)C[C@@H](O)CC(=O)O[C@H]1C)C[C@H](O)[C@H]2C(=O)O [Amphotericin B] | 5200 | 6100 | 1.2 |  | 
4 | COc1cc([C@@H]2c3cc4c(cc3[C@@H](O[C@@H]3O[C@@H]5CO[C@@H](C)O[C@H]5[C@H](O)[C@H]3O)[C@H]3COC(=O)[C@H]23)OCO4)cc(OC)c1O [Etoposide] | 1200 | 960 |  |  | 
5 | Nc1ccn([C@@H]2O[C@H](CO)[C@@H](O)C2(F)F)c(=O)n1 [Gemcitabine] | 0.63 | 0.67 | 1.1 | 1.4 | IC50 ([4]; Mus musculus, SRB assay, mean of three different experiments): 8.1 nM; IC50 ([5]; Mus musculus, B16, SRB assay, mean of three different experiments, read-out: B16 (IC50), cell growth half-maximal inhibitory concentration): 5.6 nM
6 | CC[C@]1(O)C[C@@H]2CN(CCc3c([nH]c4ccccc34)[C@@](C(=O)OC)(c3cc4c(cc3OC)N(C)[C@H]3[C@@](O)(C(=O)OC)[C@H](OC(C)=O)[C@]5(CC)C=CCN6CC[C@]43[C@@H]65)C2)C1 [Vinblastine] | 0.32 | 0.41 | 1.3 |  | 
7 | CCCCCCCCCCCCCCCCCCOCC(COP(=O)([O-])OCC[N+](C)(C)C)OC (stereo not shown) [Edelfosine] | 29000 | 29000 | 1.0 |  | 
8 | Syringomycin E |  |  | -1.4 | -1.3 | IC50 [1, 7]: 20000 nM; IC50 [4, 8]: 9000 nM; IC50 [5, 9]: 11000 nM; IC50 [2, 10]: 15000 nM
9 | CO[C@@]12[C@H](COC(N)=O)C3=C(C(=O)C(C)=C(N)C3=O)N1C[C@@H]1N[C@@H]12 [Mitomycin C] | 330 | 300 |  | -2.3 | IC50 ([4]; Mus musculus): 2500 nM; IC50 [5, 11]: 5700 nM
10 | CN(Cc1cnc2nc(N)nc(N)c2n1)c1ccc(C(=O)N[C@@H](CCC(=O)O)C(=O)O)cc1 [Methotrexate] | 37 | 77 | 2.1 | -1.4 | IC50 ([4]; Mus musculus): 370 nM; IC50 [5, 11]: 500 nM
11 | C/C(=C\c1csc(C)n1)[C@@H]1C[C@@H]2O[C@]2(C)CCC[C@H](C)[C@H](O)[C@@H](C)C(=O)C(C)(C)[C@@H](O)CC(=O)O1 [Epothilone B] | 2.2 | 3.9 | 1.8 |  | 
12 | N.N.[Cl][Pt][Cl] [Cisplatin] |  |  | -2.7 | -2.0 | IC50 [1, 7]: 9800 nM; IC50 [4, 8]: 9400 nM; IC50 [5, 9]: 18000 nM; IC50 [2, 10]: 3600 nM
13 | COc1cccc2c1C(=O)c1c(O)c3c(c(O)c1C2=O)C[C@@](O)(C(=O)CO)C[C@@H]3O[C@H]1C[C@H](N)[C@H](O)[C@H](C)O1 [Doxorubicin] | 140 | 99 |  | -1.9 | IC50 ([4]; Mus musculus): 94 nM; IC50 [5, 11]: 180 nM
14 | CCC1=C[C@@H]2CN(C1)Cc1c([nH]c3ccccc13)[C@@](C(=O)OC)(c1cc3c(cc1OC)N(C)[C@H]1[C@@](O)(C(=O)OC)[C@H](OC(C)=O)[C@]4(CC)C=CCN5CC[C@]31[C@@H]54)C2 [Vinorelbine] | 160 | 190 | 1.1 |  | 
15 | COc1cc2c(c(OC)c1OC)-c1ccc(OC)c(=O)cc1[C@@H](NC(C)=O)CC2 [Colchicine] | 3.9 | 2.8 |  |  | 
16 | O=c1[nH]cc(F)c(=O)[nH]1 [5-FU, 5-fluorouracil] | 4000 | 11000 | 2.8 |  | 
17 | CC(=O)O[C@@]12CO[C@@H]1C[C@H](O)[C@@]1(C)C(=O)[C@H](O)C3=C(C)[C@@H](OC(=O)[C@H](O)[C@@H](NC(=O)OC(C)(C)C)c4ccccc4)C[C@@](O)([C@@H](OC(=O)c4ccccc4)[C@H]21)C3(C)C [Docetaxel] | 2.9 | 1.8 |  |  | 
18 | CC(=O)O[C@H]1C(=O)[C@@]2(C)[C@H]([C@H](OC(=O)c3ccccc3)[C@]3(O)C[C@H](OC(=O)[C@H](O)[C@@H](NC(=O)c4ccccc4)c4ccccc4)C(C)=C1C3(C)C)[C@]1(OC(C)=O)CO[C@@H]1C[C@@H]2O [Paclitaxel] | 6.9 | 8.3 | 1.2 | 2.2 | IC50 ([4]; Mus musculus): 34 nM; IC50 [5, 11]: 15 nM
